Legend:
[1] = Preformulation hygroscopicity study of bulk drug (water uptake, Karl Fischer); type: physicochemical; settings: for water absorbed by Karl Fischer: after 48 hours of storage; for water absorbed: 75% RH
Protocol: (§1) Preformulation studies of swainsonine hydrochloride, bulk drug substance, and in combination with powder and semisolid fill gelatin capsules were conducted with respect to the following: hygroscopicity, pH, stability, and solubility. […] At 20% and 50% RH it absorbed 1.9% and 2.1% of water by Karl Fischer after 48 hours of storage. The moisture uptake diminishes when anhydrous powder excipients (e.g. lactose anhydrous and mannitol powder) are used to formulate the pharmaceutical active into a hard capsule.

[2] = Preformulation pH stability study in buffered solutions; type: physicochemical; settings: pH 4 and 7, ambient and stressed (40° C. and 50° C.) storage
Protocol: as §1

[3] = biological target: T1, purified rat liver Golgi mannosidase II (Rattus norvegicus, UniProt P28494); test: Inhibition of purified Golgi mannosidase II in vitro (p-nitrophenyl mannopyranoside); type: biochemical; settings: pH 5.6, 60 minutes at 37° C.
T1 construct: 15 μl of purified rat liver Golgi mannosidase II; from tissue; host or cells: rat liver
T1 sequence (P28494 1-1148): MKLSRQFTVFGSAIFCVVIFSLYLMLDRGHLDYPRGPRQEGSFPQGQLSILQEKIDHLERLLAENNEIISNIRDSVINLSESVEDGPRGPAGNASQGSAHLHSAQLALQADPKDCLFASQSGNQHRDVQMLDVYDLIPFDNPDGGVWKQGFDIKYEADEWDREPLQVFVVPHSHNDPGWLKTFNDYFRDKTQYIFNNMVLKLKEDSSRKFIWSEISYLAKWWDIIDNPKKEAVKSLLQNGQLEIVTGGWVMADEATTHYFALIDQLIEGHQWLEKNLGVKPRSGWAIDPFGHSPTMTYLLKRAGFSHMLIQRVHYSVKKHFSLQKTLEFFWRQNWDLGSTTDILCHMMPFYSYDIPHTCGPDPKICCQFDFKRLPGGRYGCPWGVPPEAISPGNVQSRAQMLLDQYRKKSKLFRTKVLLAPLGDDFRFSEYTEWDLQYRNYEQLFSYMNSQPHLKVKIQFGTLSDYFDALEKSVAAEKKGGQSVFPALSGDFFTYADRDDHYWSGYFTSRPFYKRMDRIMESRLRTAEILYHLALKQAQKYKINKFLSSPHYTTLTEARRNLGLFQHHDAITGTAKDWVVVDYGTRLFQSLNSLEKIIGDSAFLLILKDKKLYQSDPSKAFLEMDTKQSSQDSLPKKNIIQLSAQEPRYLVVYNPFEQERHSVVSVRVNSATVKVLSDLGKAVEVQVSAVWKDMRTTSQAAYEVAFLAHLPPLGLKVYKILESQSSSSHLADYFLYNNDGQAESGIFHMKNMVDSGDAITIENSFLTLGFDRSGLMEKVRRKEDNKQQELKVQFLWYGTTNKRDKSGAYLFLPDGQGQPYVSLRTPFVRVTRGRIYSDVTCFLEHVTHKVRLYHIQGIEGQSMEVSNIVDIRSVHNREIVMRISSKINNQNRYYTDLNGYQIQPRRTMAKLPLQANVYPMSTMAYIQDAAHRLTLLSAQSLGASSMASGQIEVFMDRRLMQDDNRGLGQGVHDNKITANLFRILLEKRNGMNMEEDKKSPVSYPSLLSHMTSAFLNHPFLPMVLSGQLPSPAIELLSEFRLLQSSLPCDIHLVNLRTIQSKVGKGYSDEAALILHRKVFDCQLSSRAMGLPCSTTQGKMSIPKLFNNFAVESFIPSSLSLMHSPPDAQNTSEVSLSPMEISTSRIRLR
Protocol: The test compound swainsonine is prepared by 0.4 serial dilution of a 40 μM stock. Present in each determination is 10 μl diluted test compound, 25 μl of 10 mM paranitrophenyl mannopyranoside, 200 mM sodium acetate, pH 5.6 and 15 μl of purified rat liver Golgi mannosidase II. After incubating the reaction for 60 minutes at 37° C., the reaction is quenched with 50 μl of 0.5 M sodium carbonate. Absorption is read at […]. After subtracting the blank from positive controls and samples, the samples are normalized against the positive control mean using a variable slope, sigmoidal curve fit, with bottom=0, top=100. The signal is proportional to the amount of products from the uninhibited reaction.

[4] = Accelerated stability of stressed solid samples, percentage remaining by HPLC; type: physicochemical
From the text: Samples of swainsonine free base synthesized using synthetic routes developed by Dr. David Dime (Toronto Research Chemicals, Toronto, Ontario) and Dr. William Pearson (University of Michigan, Ann Arbor, Mich.), were recrystallized to obtain either the hydrochloride salt, the hydrobromide salt or the free base of swainsonine. Samples were weighed and exposed to the conditions described below.
To model long-term stability or shelf life, various conditions were used to accelerate the decomposition process. Samples of crystalline prism swainsonine hydrochloride salt and swainsonine free base (a white, fluffy powder obtained from swainsonine hydrochloride were recrystallized from chloroform-methanol-diethyl ether) were weighed and exposed to conditions described below (stressed samples). Unstressed samples were prepared at 1 mg/ml concentration and chromatographed in sextuplicate on each run. After the indicated time interval each stressed sample was diluted with mobile phase at the same concentration as the unstressed sample. The percentage remaining swainsonine hydrochloride or swainsonine free base was calculated based on the percentage of either the hydrochloride or the free base in the unstressed sample.
The conditions included (a) UV light for 7 days; (b) 105° C. with atmospheric oxygen for seven days (*=average of two samples); (c) 105° C. under nitrogen for seven days (*=average of two samples); (d) 70° C. with low humidity for seven days; and (e) 40° C. with 75% relative humidity for seven days. Other tests include (f) UV for 24 hours; (g) 100° C. aqueous solution for two hours; (h) aqueous acidic treatment for 24 hours; (i) aqueous alkali treatment for 4 hours; and (j) (aqueous) 3% hydrogen peroxide for 4 hours. […] The physical properties of swainsonine hydrochloride compared to the free base and swainsonine hydrobromide, and swainsonine hydrofluoride are shown in Table 5.

[5] = tested on: SP1.A3a mouse mammary adenocarcinoma; test: SP1.A3a tumor growth in mice, oral administration in drinking water; type: in vivo, CBA/J mice
Protocol: The experiment was repeated using swainsonine hydrochloride administered in drinking water. SP1.A3a mouse mammary adenocarcinoma were maintained in exponential growth in RPMI 1640 medium containing 10% FBS. The cells were harvested and re-suspended at 3×10^5/ml in PBS and 0.1 ml containing 3×10^4 cells injected S.C. into the right flank of 7 week old female CBA/J mice (Jackson Laboratories) (n=25). The mice were subsequently supplied with drinking water alone (n=13) or drinking water containing 10 μg/ml swainsonine hydrochloride (n=12) (equivalent to a dose of 2 mg/kg/day).
Once a palpable tumor was evident, tumor size was measured twice a week using vernier callipers. At the end of the treatment period the tumors were excised and weighed.

Cl.O[C@H]1[C@H]2[C@H](O)CCCN2C[C@@H]1O [swainsonine hydrochloride, (−)-(1S,2S,8R,8aR)-1,2,8-trihydroxyoctahydro-indolizidine hydrochloride salt]
water absorbed by Karl Fischer ([1]; 20% RH): 1.9%
water absorbed by Karl Fischer ([1]; 50% RH): 2.1%
water absorbed ([1]; first 2 hours): approximately 8 % (w/w)
water absorbed ([1]; first 8 hours): ~24 % (w/w)
hygroscopicity ([1]; bulk drug): highly hygroscopic
stability in buffered solutions [2]: stable
IC50 [3]: 68 ± 21 nM
percentage remaining, condition (e) ([4]; 40° C. with 75% relative humidity for seven days): 101.9%
percentage remaining, condition (d) ([4]; 70° C. with low humidity for seven days): 103.2%
percentage remaining, condition (c) ([4]; 105° C. under nitrogen for seven days (*=average of two samples)): 101.2%
percentage remaining, condition (b) ([4]; 105° C. with atmospheric oxygen for seven days (*=average of two samples)): 100.9%
percentage remaining, condition (a) ([4]; UV light for 7 days): 99.4%
tumor growth versus control mice ([5]; 10 μg/ml in drinking water (2 mg/kg/day), FIG. 9): slower growing tumors
mean tumor weight ([5]; 10 μg/ml in drinking water, at 31 days, untreated 3.33 g): 1.79 g
